In ChEMBL document CHEMBL5728971, “Small molecule inhibitors of lactate dehydrogenase and methods of use thereof” (2022):
Values joined by “and” are separate entries in the source; they are usually repeats but may differ in a detail not shown here. Equal values may be shown once.

Assay: Biochemical Assay: Test compounds were placed in a Greiner Bio-One (Monroe, N.C.) 1536-well black solid bottom assay plate. 200 millimolar (mM) Tris HCl, pH 7.4, 100 micromolar (μM) EDTA and 0.01% TWEEN-20™, final concentration, was used as the assay buffer. The LDHA reagent was 2 nanomolar (nM) Human LDHA (Meridian Life Science, Inc., Memphis, Tenn.), final concentration, in assay buffer.

Compound | IC50
NS(=O)(=O)c1ccc(Cc2c(-c3cccc(-c4ccccc4)c3)nn(-c3nc(C(=O)O)cs3)c2CC2CC2)cc1 | < 0.1 µM
NS(=O)(=O)c1ccc(Cc2c(-c3cccc(-c4ccccc4)c3)nn(-c3nc(C(=O)O)cs3)c2C2(C(F)(F)F)CC2)cc1 | in the range around 29 µM
NS(=O)(=O)c1ccc(Cc2c(-c3ccc(F)c(C#CC4CCNCC4)c3)nn(-c3nc(C(=O)O)cs3)c2CC2CC2)cc1F | < 0.1 µM
NS(=O)(=O)c1ccc(Cc2c(-c3ccc(F)c(C#CC4CC4)c3)nn(-c3nc(C(=O)O)cs3)c2CC2CC2)cc1F | < 0.1 µM
NS(=O)(=O)c1ccc(Cc2c(-c3ccc(F)c(C#CC4CCCC4)c3)nn(-c3nc(C(=O)O)cs3)c2CC2CC2)cc1F | < 0.1 µM
CC#Cc1cccc(-c2nn(-c3nc(C(=O)O)cs3)c(CC3CC3)c2Cc2ccc(S(N)(=O)=O)c(F)c2)c1 | < 0.1 µM
NS(=O)(=O)c1ccc(Cc2c(-c3cccc(-c4ccccc4)c3)nn(-c3nc(C(=O)O)cs3)c2CC2CC2)c(F)c1 | < 0.1 µM
NS(=O)(=O)c1ccc(Cc2c(-c3ccc(F)c(-c4ccccc4)c3)nn(-c3nc(C(=O)O)cs3)c2CC2CC2)cc1 | < 0.1 µM
NS(=O)(=O)c1ccc(Cc2c(-c3cccc(-c4ccccc4)c3)nn(-c3nc(C(=O)O)cs3)c2CC(F)(F)F)cc1 | in the range around 0.55 µM
NS(=O)(=O)c1ccc(Cc2c(-c3ccc(F)c(C#CCN4CCOCC4)c3)nn(-c3nc(C(=O)O)cs3)c2CC2CC2)cc1F | < 0.1 µM
COc1cc(-c2nn(-c3nc(C(=O)O)cs3)c(CC3CC3)c2Cc2ccc(S(N)(=O)=O)cc2)ccc1F | < 0.1 µM
NS(=O)(=O)c1ccc(Cc2c(C3(C(F)(F)F)CC3)nn(-c3nc(C(=O)O)cs3)c2-c2cccc(-c3ccccc3)c2)cc1F | in the range around 29 µM
CCOC(=O)c1csc(-n2nc(-c3ccccc3)c(Cc3ccc(S(N)(=O)=O)cc3)c2C2CC2)n1 | > 57 µM
CC(C)(O)C#Cc1cc(-c2nn(-c3nc(C(=O)O)cs3)c(CC3CC3)c2Cc2ccc(S(N)(=O)=O)c(F)c2)ccc1F | < 0.1 µM
Cc1ccc(-c2cccc(-c3nn(-c4nc(C(=O)O)cs4)c(CC4CC4)c3Cc3ccc(S(N)(=O)=O)cc3)c2)cc1 | < 0.1 µM
CCOC(=O)c1csc(-n2nc(C3CCCCC3)c(Oc3ccc(S(N)(=O)=O)cc3)c2-c2ccccc2)n1 | > 57 µM
NS(=O)(=O)c1ccc(Cc2c(-c3cccc(-c4cccc(F)c4)c3)nn(-c3nc(C(=O)O)cs3)c2C(F)(F)F)cc1 | < 0.1 µM
COc1cccc(-c2cc(-c3nn(-c4nc(C(=O)O)cs4)c(C4CC4)c3Cc3ccc(S(N)(=O)=O)c(F)c3)ccc2F)c1 | < 0.1 µM
NS(=O)(=O)c1ccc(Cc2c(-c3ccc(F)c(-c4ccc(C5CC5)cc4)c3)nn(-c3nc(C(=O)O)cs3)c2CC2CC2)cc1 | < 0.1 µM
CCOC(=O)c1csc(-n2nc(-c3ccc(F)c(C#CC4CCCC4)c3)c(Cc3ccc(S(N)(=O)=O)c(F)c3)c2CC2CC2)n1 | > 57 µM
NS(=O)(=O)c1ccc(Cc2c(CC3CC3)nn(-c3nc(C(=O)O)cs3)c2-c2cccc(-c3ccccc3)c2)cc1F | in the range around 29 µM
CCOC(=O)c1csc(-n2nc(CC3CC3)c(Cc3ccc(S(N)(=O)=O)c(F)c3)c2-c2ccc(F)c(-c3cccc(F)c3)c2)n1 | > 57 µM

Compound | IC50
C=C(C)C#Cc1cc(-c2nn(-c3nc(C(=O)O)cs3)c(CC3CC3)c2Cc2ccc(S(N)(=O)=O)c(F)c2)ccc1F | < 0.1 µM
NS(=O)(=O)c1ccc(Cc2c(-c3cccc(-c4ccccc4)c3)nn(-c3nc(C(=O)O)cs3)c2C2(C(F)(F)F)CC2)cc1F | in the range around 29 µM
NS(=O)(=O)c1ccc(Cc2c(-c3cccc(N4CCOCC4)c3)nn(-c3ncc(C(=O)O)s3)c2CC2CC2)cc1F | < 0.1 µM
CN1CC=C(c2cc(-c3nn(-c4nc(C(=O)O)cs4)c(CC4CC4)c3Cc3ccc(S(N)(=O)=O)c(F)c3)ccc2F)CC1 | < 0.1 µM
C#Cc1c(Cc2ccc(S(N)(=O)=O)cc2)c(-c2ccccc2)nn1-c1nc(C(=O)O)cs1 | in the range around 29 µM
NS(=O)(=O)c1ccc(Cc2c(Cc3ccccc3)nn(-c3nc(C(=O)O)cs3)c2-c2ccccc2)cc1 | in the range around 29 µM
Cc1ccc(-c2cccc(-c3nn(-c4nc(C(=O)O)cs4)c(C(F)(F)F)c3Cc3ccc(S(N)(=O)=O)cc3)c2)cc1 | < 0.1 µM
CCOC(=O)c1csc(-n2nc(-c3ccc(F)c(-c4cccc(F)c4)c3)c(Cc3ccc(S(N)(=O)=O)cc3F)c2CC2CC2)n1 | in the range around 29 µM
CCOC(=O)c1csc(-n2nc(-c3cccc(-c4ccccc4)c3)c(Cc3ccc(S(N)(=O)=O)cc3)c2C2(C(F)(F)F)CC2)n1 | > 57 µM
NS(=O)(=O)c1ccc(Cc2c(-c3cccc(-c4ccccc4)c3)nn(-c3nc(C(=O)O)cs3)c2C2(C(F)(F)F)CC2)c(F)c1 | in the range around 0.55 µM
CC(C)c1ccc(-c2cc(-c3nn(-c4nc(C(=O)O)cs4)c(CC4CC4)c3Cc3ccc(S(N)(=O)=O)cc3)ccc2F)cc1 | < 0.1 µM
NS(=O)(=O)c1ccc(Cc2c(C3(C(F)(F)F)CC3)nn(-c3nc(C(=O)O)cs3)c2-c2cccc(-c3ccccc3)c2)cc1 | in the range around 29 µM
CC#Cc1cccc(-c2nn(-c3nc(C(=O)OCC)cs3)c(CC3CC3)c2Cc2ccc(S(N)(=O)=O)c(F)c2)c1 | in the range around 29 µM
COc1cccc(-c2cccc(-c3nn(-c4nc(C(=O)O)cs4)c(C(F)(F)F)c3Cc3ccc(S(N)(=O)=O)cc3)c2)c1 | < 0.1 µM
NS(=O)(=O)c1ccc(Cc2c(CC(F)(F)F)nn(-c3nc(C(=O)O)cs3)c2-c2cccc(-c3ccccc3)c2)cc1 | in the range around 29 µM
CCOC(=O)c1csc(-n2nc(-c3ccccc3)c(Oc3ccc(S(N)(=O)=O)cc3)c2C2CCCCC2)n1 | > 57 µM
CCOC(=O)c1csc(-n2nc(-c3ccc(F)c(-c4cccc(F)c4)c3)c(Cc3ccc(S(N)(=O)=O)c(F)c3)c2CC2CC2)n1 | > 57 µM
NS(=O)(=O)c1ccc(Cc2c(-c3ccc(F)c(-c4cccc(F)c4)c3)nn(-c3nc(C(=O)O)cs3)c2C2CC2)cc1F | < 0.1 µM
CCOC(=O)c1csc(-n2nc(-c3cccc(-c4ccccc4)c3)c(Cc3ccc(S(N)(=O)=O)cc3)c2CC2CC2)n1 | in the range around 29 µM
CCOC(=O)c1csc(-n2nc(-c3cccc(-c4ccc(C)cc4)c3)c(Cc3ccc(S(N)(=O)=O)c(F)c3)c2CC2CC2)n1 | in the range around 29 µM and > 57 µM
NS(=O)(=O)c1ccc(Cc2c(-c3cccc(-c4ccc(F)cc4)c3)nn(-c3nc(C(=O)O)cs3)c2C(F)(F)F)cc1 | < 0.1 µM
NS(=O)(=O)c1ccc(Cc2c(-c3ccc(F)c(Br)c3)nn(-c3nc(C(=O)O)cs3)c2CC2CC2)cc1 | < 0.1 µM

The remaining lines, values ahead:

IC50 | Compound
< 0.1 µM | COc1cccc(-c2cc(-c3nn(-c4nc(C(=O)O)cs4)c(C4CC4)c3Cc3ccc(S(N)(=O)=O)cc3F)ccc2F)c1
< 0.1 µM | NS(=O)(=O)c1ccc(Cc2c(-c3ccc(F)c(-c4cccc(F)c4)c3)nn(-c3nc(C(=O)O)cs3)c2C2CC2)c(F)c1
in the range around 29 µM | Cc1ccc(-c2cccc(-c3c(Cc4ccc(S(N)(=O)=O)cc4)c(CC4CC4)nn3-c3nc(C(=O)O)cs3)c2)cc1
< 0.1 µM | Cc1ccc(-c2cc(-c3nn(-c4nc(C(=O)O)cs4)c(C4CC4)c3Cc3ccc(S(N)(=O)=O)cc3F)ccc2F)cc1
< 0.1 µM | Cc1ccc(-c2cc(-c3nn(-c4nc(C(=O)O)cs4)c(CC4CC4)c3Cc3ccc(S(N)(=O)=O)cc3F)ccc2F)cc1
in the range around 29 µM | Cc1ccc(-c2cccc(-c3c(Cc4ccc(S(N)(=O)=O)c(F)c4)c(CC4CC4)nn3-c3nc(C(=O)O)cs3)c2)cc1
< 0.1 µM | Cc1ccc(-c2cccc(-c3nn(-c4nc(C(=O)O)cs4)c(CC4CC4)c3Cc3ccc(S(N)(=O)=O)cc3F)c2)cc1
in the range around 29 µM | NS(=O)(=O)c1ccc(Cc2c(CC3CC3)nn(-c3nc(C(=O)O)cs3)c2-c2ccc(F)c(-c3ccc(C4CC4)cc3)c2)cc1
in the range around 29 µM | NS(=O)(=O)c1ccc(Cc2c(CC3CC3)nn(-c3nc(C(=O)O)cs3)c2-c2ccc(F)c(-c3ccc(F)cc3)c2)cc1
in the range around 29 µM | COc1cc(-c2c(Cc3ccc(S(N)(=O)=O)cc3)c(CC3CC3)nn2-c2nc(C(=O)O)cs2)ccc1F
< 0.1 µM | NS(=O)(=O)c1ccc(Cc2c(-c3ccc(F)c(-c4ccc(F)cc4)c3)nn(-c3nc(C(=O)O)cs3)c2CC2CC2)c(F)c1
in the range around 29 µM | Cc1ccc(-c2cc(-c3c(Cc4ccc(S(N)(=O)=O)cc4)c(CC4CC4)nn3-c3nc(C(=O)O)cs3)ccc2F)cc1
in the range around 29 µM | CC(C)c1ccc(-c2cc(-c3c(Cc4ccc(S(N)(=O)=O)cc4)c(CC4CC4)nn3-c3nc(C(=O)O)cs3)ccc2F)cc1
in the range around 29 µM | NS(=O)(=O)c1ccc(Cc2c(CC3CC3)nn(-c3nc(C(=O)O)cs3)c2-c2ccc(F)c(-c3ccc(F)cc3)c2)c(F)c1
< 0.1 µM | Cc1ccc(-c2cc(-c3nn(-c4nc(C(=O)O)cs4)c(CC4CC4)c3Cc3ccc(S(N)(=O)=O)cc3)ccc2F)cc1
< 0.1 µM | Cc1ccc(-c2cc(-c3nn(-c4nc(C(=O)O)cs4)c(CC4CC4)c3Cc3ccc(S(N)(=O)=O)c(F)c3)ccc2F)cc1
in the range around 29 µM | NS(=O)(=O)c1ccc(Cc2c(CC3CC3)nn(-c3nc(C(=O)O)cs3)c2-c2cccc(-c3ccccc3)c2)c(F)c1
in the range around 29 µM | Cc1ccc(-c2cc(-c3c(Cc4ccc(S(N)(=O)=O)cc4F)c(CC4CC4)nn3-c3nc(C(=O)O)cs3)ccc2F)cc1
< 0.1 µM | NS(=O)(=O)c1ccc(Cc2c(-c3ccc(F)c(-c4ccc(F)cc4)c3)nn(-c3nc(C(=O)O)cs3)c2C2CC2)c(F)c1
> 57 µM | CCOC(=O)c1csc(-n2nc(CC3CC3)c(Cc3ccc(S(N)(=O)=O)cc3F)c2-c2ccc(F)c(-c3cccc(F)c3)c2)n1
in the range around 29 µM | Cc1ccc(-c2cc(-c3c(Cc4ccc(S(N)(=O)=O)c(F)c4)c(CC4CC4)nn3-c3nc(C(=O)O)cs3)ccc2F)cc1
in the range around 29 µM | NS(=O)(=O)c1ccc(Cc2c(CC3CC3)nn(-c3nc(C(=O)O)cs3)c2-c2ccc(F)c(Br)c2)cc1
< 0.1 µM | NS(=O)(=O)c1ccc(Cc2c(-c3ccc(F)c(-c4ccc(F)cc4)c3)nn(-c3nc(C(=O)O)cs3)c2CC2CC2)cc1
